Test results as given in US6627630B1, “Condensed pyridazine derivatives, their production and use” (Takeda Chemical Industries, Ltd., priority 1998, dated 2003).
Counter-ions that a name gives are not always drawn.

Test system: not given
Test: not given
Conditions: not given

| SMILES | melting point [°C] |
| --- | --- |
| CC(C)c1cc2ncnn2nc1OCCOCCN1CCN(C(c2ccccc2)c2ccccc2)CC1 [Example 61A, 6-[2-[2-[4-(Diphenylmethyl)-1-piperazinyl]ethoxy]ethoxy]-7-isopropyl[1,2,4]triazolo[1,5-b]pyridazine] | 119 to 120 |
| COC(=O)c1nc2ccc(NCCCN3CCC(OC(c4ccccc4)c4ccccc4)CC3)nn2n1 [Example 36A, Methyl 6-[3-[4-(Diphenylmethoxy)piperidino]propylamino][1,2,4]triazolo[1,5-b]pyridazine-2-carboxylate] | 93 to 96 |
| O=C(OCCCOc1ccc2ncnn2n1)C1CC(OC(c2ccccc2)c2ccccc2)CCN1 (stereo not drawn) [Example 27A, 6-[3-[4-(Diphenylmethoxy)piperidino-carbonyloxy]propoxy][1,2,4]triazolo[1,5-b]pyridazine] | 119 to 120 |
| Cc1nc2ccc(OCCCN3CCC(OC(c4ccccc4)c4ccccc4)CC3)nn2n1 [Example 21A, 6-[3-[4-(Diphenylmethoxy)piperidino]propoxy]-2-methyl[1,2,4]triazolo[1,5-b]pyridazine] | 134 to 136 |
| c1ccc(C(OC2CCN(CCCCCNc3ccc4ncnn4n3)CC2)c2ccccc2)cc1 [Example 114A, 6-[5-[4-(Diphenylmethoxy)piperidino]pentylamino][1,2,4]triazolo[1,5-b]pyridazine] | 96 to 98 |
| c1ccc(C(OC2CCN(CCCNc3ccc4ncnn4n3)CC2)c2ccccc2)cc1 [Example 6A, 6-[3-[4-(Diphenylmethoxy)piperidino]propylamino][1,2,4]triazolo[1,5-b]pyridazine] | 136 to 138 |
| CCOC(=O)CNC(=O)c1nc2ccc(NCCCN3CCC(OC(c4ccccc4)c4ccccc4)CC3)nn2c1C [Example 127A, N-[6-[3-[4-(Diphenylmethoxy)piperidino]propylamino]-3-methylimidazo[1,2-b]pyridazine-2-carbonyl]glycine Ethyl Ester] | 158 to 160 |
| c1ccc(C(OC2CCN(CCCCNc3ccc4ncnn4n3)CC2)c2ccccc2)cc1 [Example 12A, 6-[4-[4-(Diphenylmethoxy)piperidino]butylamino][1,2,4]triazolo[1,5-b]pyridazine] | 102 to 104 |
| Cc1cc2ncnn2nc1OCCOCCN1CCC(OC(c2ccccc2)c2ccccc2)CC1 [Example 53A, 6-[2-[2-[4-(Diphenylmethoxy)piperidino]ethoxy]ethoxy]-7-methyl[1,2,4]triazolo[1,5-b]pyridazine] | 80 to 82 |
| O=C(O)C1(c2cn3nc(NCCCN4CCC(OC(c5ccccc5)c5ccccc5)CC4)ccc3n2)CC1 [Example 100A, 1-[6-[3-[4-(Diphenylmethoxy)piperidino]propylamino]imidazo[1,2-b]pyridazin-2-yl]cyclopropanecarboxylic Acid] | 115 to 117 |
| O=C(O)c1nc2ccc(OCCCN3CCC(OC(c4ccccc4)c4ccccc4)CC3)nn2n1 [Example 123A, [6-[3-[4-(Diphenylmethoxy)piperidino]propoxy][1,2,4]triazolo[1,5-b]pyridazin-2-yl]carboxylic Acid] | 173 to 177 |
| CCOC(=O)CNC(=O)c1nc2ccc(NCCCN3CCC(OC(c4ccccc4)c4ccccc4)CC3)nn2c1Cl [Example 111A, N-[3-Chloro-6-[3-[4-(diphenylmethoxy)piperidino]propylamino]imidazo[1,2-b]pyridazine-2-carbonyl]glycine Ethyl Ester] | 178 to 180 |
| O=C(O)CNC(=O)c1cn2nc(NCCCN3CCC(OC(c4ccccc4)c4ccccc4)CC3)ccc2n1 [Example 72A, N-[6-[3-[4-(Diphenylmethoxy)piperidino]propylamino]imidazo[1,2-b]pyridazine-2-carbonyl]glycine] | 171 |
| O=C(CN1CCC(OC(c2ccccc2)c2ccccc2)CC1)Nc1ccc2ncnn2n1 [Example 23A, 2-[4-(Diphenylmethoxy)piperidino]-N-([1,2,4]triazolo[1,5-b]pyridazin-6-yl)acetamide] | 158 to 160 |
| O=C(CN1CCN(C(c2ccccc2)c2ccccc2)CC1)Nc1ccc2ncnn2n1 [Example 24A, 2-[4-(Diphenylmethyl)-1-piperazinyl]-N-([1,2,4]triazolo[1,5-b]pyridazin-6-yl)acetamide] | 203 to 204 |
| CC(C)(C)c1cc2ncnn2nc1OCCN1CCC(OC(c2ccccc2)c2ccccc2)CC1 [Example 15A, 7-t-Butyl-6-[2-[4-(Diphenylmethoxy)piperidino]ethoxy][1,2,4]triazolo[1,5-b]pyridazine] | 133 to 135 |
| CC(C)OC(=O)c1nc2ccc(OCCCN3CCC(OC(c4ccccc4)c4ccccc4)CC3)nn2n1 [Example 122A, Isopropyl[6-[3-[4-(Diphenylmethoxy)piperidino]propoxy][1,2,4]triazolo[1,5-b]pyridazin-2-yl]carboxylate] | 126 to 127 |
| CC(C)(C(=O)O)c1nc2ccc(OCCCN3CCN(C(c4ccccc4)c4ccccc4)CC3)nn2c1Cl [Example 88A, 2-[3-Chloro-6-[3-[4-(diphenylmethyl)-1-piperazinyl]propoxy]imidazo[1,2-b]pyridazin-2-yl]-2-methylpropionic Acid] | 118 to 121 |
| CC(C)(C)OC(=O)c1nc2ccc(NCCCN3CCC(OC(c4ccccc4)c4ccccc4)CC3)nn2n1 [Example 116A, tert-Butyl[6-[3-[4-(Diphenylmethoxy)piperidino]propylamino][1,2,4]triazolo[1,5-b]pyridazin-2-yl]carboxylate] | 133 to 135 |
| CC(C)(C(=O)O)c1cn2nc(NCCCN3CCC(OC(c4ccccc4)c4ccccc4)CC3)ccc2n1 [Example 43A, 2-[6-[3-[4-(Diphenylmethoxy)piperidino]propylamino]imidazo[1,2-b]pyridazin-2-yl]-2-methylpropionic Acid] | 205 to 206 |
| CC(C)c1cc2ncnn2nc1SCCCN1CCN(C(c2ccccc2)c2ccccc2)CC1 [Example 9A, 6-[3-[4-(Diphenylmethyl)-1-piperazinyl]propylthio]-7-isopropyl[1,2,4]triazolo[1,5-b]pyridazine] | 137 to 139 |
| c1ccc(C(OC2CCN(CCCOc3ccc4ncnn4n3)CC2)c2ccccc2)cc1 (as salt: fumarate) [Example 2A, 6-[3-[4-(Diphenylmethoxy)piperidino]propoxy][1,2,4]triazolo[1,5-b]pyridazine Fumarate] | 157 to 159 |
| CC(C)(C)c1cc2ncnn2nc1OCCOCCN1CCN(C(c2ccccc2)c2ccccc2)CC1 (as salt: hydrochloride) [Example 62A, 7-t-Butyl-6-[2-[2-[4-(Diphenylmethyl)-1-piperazinyl]ethoxy]ethoxy][1,2,4]triazolo[1,5-b]pyridazine Dihydrochloride] | 150 to 152 |

Test system: histamine-induced skin reactions
Test: Effect on histamine-induced skin reactions in guinea pigs
Assay type: in vivo, guinea pig
Conditions: 1 hour before intradermal histamine, Table 1
Method: Effect on Histamine-induced Skin Reactions in Guinea Pigs
(§1) Male Hartley guinea pigs weighing about 500 g were used. After the dorsal hair was shaved under ether anesthesia, 1 ml of a 2.5% pontamine sky blue solution was injected intravenously administered, and then 0.1 ml of histamine at 3 μg/ml was injected intradermally into 2 sites (left and right) in the back. Thirty minutes after the injection of histamine, animals were killed by bleeding and the skin was removed. Two perpendicular diameters (mm) of each blue spot on the inside of the skin were measured and multiplied; the mean for the two products was taken as the microvascular permeability index. Test compounds were suspended in a 5% gum arabic solution and orally administered in a volume of 0.2 ml/100 g body weight 1 hour before histamine administration. Animals in the control group received the same volume of a 5% gum arabic solution. The suppression rate of the sample for the title reaction was calculated using Equation 1.
Inhibition (%) of histamine-induced skin reactions=100×(1−vascular permeability index in the presence of drug/vascular permeability index in control group) Equation 1
as §1, with “bleeding and he skin was” for “bleeding and the skin was”, “measured and multiplied, the mean” for “measured and multiplied; the mean”

| SMILES | Inhibition (%) of Histamine-induced Skin Reactions, 3 mg/kg Oral Administration [%] |
| --- | --- |
| CC(C)(C(=O)O)c1cn2nc(NCCCN3CCC(OC(c4ccccc4)c4ccccc4)CC3)ccc2n1.O.O [Example 135A, 2-[6-[3-[4-(Diphenylmethoxy)piperidino]propylamino]imidazo[1,2-b]pyridazin-2-yl)-2-methylpropionic Acid Dihydrate] | 91 |
| O=C(CCN1CCC(OC(c2ccccc2)c2ccccc2)CC1)Nc1ccc2ncnn2n1 [Example 18A] | 91 |
| CC(C)(C(=O)O)c1cn2nc(OCCCN3CCC(OC(c4ccccc4)c4ccccc4)CC3)ccc2n1 [Example 45A] | 91 |

Same assay, conditions: 1 hour before intradermal histamine, Table 3

| SMILES | Inhibition (%) of Histamine-induced Skin Reactions, 3 mg/kg Oral Administration [%] |
| --- | --- |
| CC(C)(C(=O)O)c1cn2nc(NCCCN3CCC(OC(c4ccccc4)c4ccccc4)CC3)ccc2n1.O.O [Example 135A, 2-[6-[3-[4-(Diphenylmethoxy)piperidino]propylamino]imidazo[1,2-b]pyridazin-2-yl)-2-methylpropionic Acid Dihydrate] | 91 |
